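GI50 = concentration required for 50% inhibition of growth. TGI marks complete inhibition of growth.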
Legend:
Assay in all cases: inhibition of tumour cell growth, NCI panel, 384-well format
TK-10 renal = system: TK-10 renal
A549 NSCLC = system: A549 NSCLC
DU-145 prostate = system: DU-145 prostate
COLO 205 colon = system: COLO 205 colon
HOP-62 NSCLC = system: HOP-62 NSCLC
HCT-15 colon = system: HCT-15 colon
ACHN renal = system: ACHN renal
LOX IMVI melanoma = system: LOX IMVI melanoma
K-562 leukemia = system: K-562 leukemia
OVCAR-3 ovarian = system: OVCAR-3 ovarian
SK-MEL-28 melanoma = system: SK-MEL-28 melanoma
NCI-H23 lung = system: NCI-H23 lung
SNB-75 CNS = system: SNB-75 CNS
UACC-62 melanoma = system: UACC-62 melanoma
RXF 393 renal = system: RXF 393 renal
NCI-H322M lung = system: NCI-H322M lung
PC-3 prostate = system: PC-3 prostate
NCI-H226 lung = system: NCI-H226 lung
CAKI-1 renal = system: CAKI-1 renal
U251 glioblastoma = system: U251 glioblastoma
MOLT-4 leukemia = system: MOLT-4 leukemia
OVCAR-4 ovarian = system: OVCAR-4 ovarian
T-47D breast = system: T-47D breast
OVCAR-8 ovarian = system: OVCAR-8 ovarian
SW-620 colon = system: SW-620 colon
UO-31 renal = system: UO-31 renal
CCRF-CEM leukemia = system: CCRF-CEM leukemia
HCT-116 colon = system: HCT-116 colon
NCI-H460 NSCLC = system: NCI-H460 NSCLC
HT29 colon = system: HT29 colon
KM12 colon = system: KM12 colon
M14 melanoma = system: M14 melanoma
HCC-2998 colon = system: HCC-2998 colon
IGROV1 ovarian = system: IGROV1 ovarian
SK-MEL-5 melanoma = system: SK-MEL-5 melanoma
HS 578T breast = system: HS 578T breast
MCF7 breast = system: MCF7 breast
RPMI-8226 leukemia = system: RPMI-8226 leukemia
HOP-92 NSCLC = system: HOP-92 NSCLC
SF-295 CNS = system: SF-295 CNS
SF-539 CNS = system: SF-539 CNS
786-0 renal = system: 786-0 renal
MDA-MB-231 breast = system: MDA-MB-231 breast
EKVX NSCLC = system: EKVX NSCLC
NCI/ADR-RES ovarian = system: NCI/ADR-RES ovarian
HL-60(TB) leukemia = system: HL-60(TB) leukemia
SN12C renal = system: SN12C renal
BT-549 breast = system: BT-549 breast
NCI-H522 lung = system: NCI-H522 lung
SNB-19 CNS = system: SNB-19 CNS
MALME-3M melanoma = system: MALME-3M melanoma
SF-268 CNS = system: SF-268 CNS
MDA-MB-435 melanoma = system: MDA-MB-435 melanoma
OVCAR-5 ovarian = system: OVCAR-5 ovarian
SK-OV-3 ovarian = system: SK-OV-3 ovarian
UACC-257 melanoma = system: UACC-257 melanoma
A498 renal = system: A498 renal
MDA-MB-468 breast = system: MDA-MB-468 breast

Q: How did the GI50 (TK-10 renal) turn out when `CN(CCO)C1CCN(c2ccc(Nc3ncc4c5ccnc(F)c5n(C5CCCC5)c4n3)nc2)CC1` was run?
A: 1370 nM

Q: And the TGI (TK-10 renal)?
A: 2700 nM

Q: And the GI50 (A549 NSCLC)?
A: 619 nM

Q: And the TGI (A549 NSCLC)?
A: 1990 nM

Q: What about the GI50 (DU-145 prostate) of the same compound?
A: 1720 nM

Q: What about the TGI (DU-145 prostate) of the same compound?
A: 3130 nM

Q: And the GI50 (COLO 205 colon)?
A: 373 nM

Q: What about the TGI (COLO 205 colon) of the same compound?
A: 1950 nM

Q: And the GI50 (HOP-62 NSCLC)?
A: 1170 nM

Q: And the TGI (HOP-62 NSCLC)?
A: 2420 nM

Q: And the GI50 (HCT-15 colon)?
A: 1080 nM

Q: What about the TGI (HCT-15 colon) of the same compound?
A: 2320 nM

Q: What about the GI50 (ACHN renal) of the same compound?
A: 1000 nM

Q: What about the TGI (ACHN renal) of the same compound?
A: 2190 nM

Q: What about the GI50 (LOX IMVI melanoma) of the same compound?
A: 977 nM

Q: What about the TGI (LOX IMVI melanoma) of the same compound?
A: 2180 nM

Q: What about the GI50 (K-562 leukemia) of the same compound?
A: 664 nM

Q: And the TGI (K-562 leukemia)?
A: 2090 nM

Q: And the GI50 (OVCAR-3 ovarian)?
A: 1870 nM

Q: What about the TGI (OVCAR-3 ovarian) of the same compound?
A: 3290 nM

Q: And the GI50 (SK-MEL-28 melanoma)?
A: 4060 nM

Q: And the TGI (SK-MEL-28 melanoma)?
A: 16200 nM

Q: What about the GI50 (NCI-H23 lung) of the same compound?
A: 1200 nM

Q: And the TGI (NCI-H23 lung)?
A: 2460 nM

Q: What about the GI50 (SNB-75 CNS) of the same compound?
A: 1480 nM

Q: What about the TGI (SNB-75 CNS) of the same compound?
A: 2810 nM

Q: What about the GI50 (UACC-62 melanoma) of the same compound?
A: 1350 nM

Q: And the TGI (UACC-62 melanoma)?
A: 2640 nM

Q: What about the GI50 (RXF 393 renal) of the same compound?
A: 1280 nM

Q: What about the TGI (RXF 393 renal) of the same compound?
A: 2550 nM

Q: And the GI50 (NCI-H322M lung)?
A: 1340 nM

Q: What about the TGI (NCI-H322M lung) of the same compound?
A: 2640 nM

Q: What about the GI50 (PC-3 prostate) of the same compound?
A: 1430 nM

Q: And the TGI (PC-3 prostate)?
A: 2790 nM

Q: And the GI50 (NCI-H226 lung)?
A: 5220 nM

Q: And the TGI (NCI-H226 lung)?
A: > 100000 nM

Q: What about the GI50 (CAKI-1 renal) of the same compound?
A: 868 nM

Q: What about the TGI (CAKI-1 renal) of the same compound?
A: 2150 nM

Q: And the GI50 (U251 glioblastoma)?
A: 1120 nM

Q: And the TGI (U251 glioblastoma)?
A: 2350 nM

Q: And the GI50 (MOLT-4 leukemia)?
A: 62.4 nM

Q: What about the TGI (MOLT-4 leukemia) of the same compound?
A: 812 nM

Q: What about the GI50 (OVCAR-4 ovarian) of the same compound?
A: 1730 nM

Q: What about the TGI (OVCAR-4 ovarian) of the same compound?
A: 3130 nM

Q: What about the GI50 (T-47D breast) of the same compound?
A: 1880 nM

Q: And the TGI (T-47D breast)?
A: 67500 nM

Q: What about the GI50 (OVCAR-8 ovarian) of the same compound?
A: 1620 nM

Q: And the TGI (OVCAR-8 ovarian)?
A: 3010 nM

Q: What about the GI50 (SW-620 colon) of the same compound?
A: 574 nM

Q: What about the TGI (SW-620 colon) of the same compound?
A: 2010 nM

Q: What about the GI50 (UO-31 renal) of the same compound?
A: 1200 nM

Q: What about the TGI (UO-31 renal) of the same compound?
A: 2450 nM

Q: And the GI50 (CCRF-CEM leukemia)?
A: 89.3 nM

Q: What about the TGI (CCRF-CEM leukemia) of the same compound?
A: 1250 nM

Q: And the GI50 (HCT-116 colon)?
A: 684 nM

Q: What about the TGI (HCT-116 colon) of the same compound?
A: 2050 nM

Q: What about the GI50 (NCI-H460 NSCLC) of the same compound?
A: 188 nM

Q: And the TGI (NCI-H460 NSCLC)?
A: 1810 nM

Q: What about the GI50 (HT29 colon) of the same compound?
A: 1020 nM

Q: What about the TGI (HT29 colon) of the same compound?
A: 2230 nM

Q: What about the GI50 (KM12 colon) of the same compound?
A: 56.8 nM

Q: And the TGI (KM12 colon)?
A: 1280 nM

Q: What about the GI50 (M14 melanoma) of the same compound?
A: 1190 nM

Q: What about the TGI (M14 melanoma) of the same compound?
A: 2440 nM

Q: What about the GI50 (HCC-2998 colon) of the same compound?
A: 655 nM

Q: And the TGI (HCC-2998 colon)?
A: 2010 nM

Q: And the GI50 (IGROV1 ovarian)?
A: 1050 nM

Q: And the TGI (IGROV1 ovarian)?
A: 2260 nM

Q: And the GI50 (SK-MEL-5 melanoma)?
A: 480 nM

Q: And the TGI (SK-MEL-5 melanoma)?
A: 2030 nM

Q: What about the GI50 (HS 578T breast) of the same compound?
A: 1420 nM

Q: And the TGI (HS 578T breast)?
A: 3200 nM

Q: And the GI50 (MCF7 breast)?
A: 353 nM

Q: What about the TGI (MCF7 breast) of the same compound?
A: 1760 nM

Q: What about the GI50 (RPMI-8226 leukemia) of the same compound?
A: 47.7 nM

Q: And the TGI (RPMI-8226 leukemia)?
A: 1120 nM

Q: What about the GI50 (HOP-92 NSCLC) of the same compound?
A: 3020 nM

Q: And the TGI (HOP-92 NSCLC)?
A: 15400 nM

Q: What about the GI50 (SF-295 CNS) of the same compound?
A: 881 nM

Q: And the TGI (SF-295 CNS)?
A: 2150 nM

Q: What about the GI50 (SF-539 CNS) of the same compound?
A: 1380 nM

Q: And the TGI (SF-539 CNS)?
A: 2680 nM

Q: What about the GI50 ([…]-0 renal) of the same compound?
A: 1150 nM

Q: And the TGI (786-0 renal)?
A: 2370 nM

Q: What about the GI50 (MDA-MB-231 breast) of the same compound?
A: 1260 nM

Q: And the TGI (MDA-MB-231 breast)?
A: 2710 nM

Q: What about the GI50 (EKVX NSCLC) of the same compound?
A: 1270 nM

Q: And the TGI (EKVX NSCLC)?
A: 2560 nM

Q: What about the GI50 (NCI/ADR-RES ovarian) of the same compound?
A: 1740 nM

Q: What about the TGI (NCI/ADR-RES ovarian) of the same compound?
A: 3170 nM

Q: What about the GI50 (HL-60(TB) leukemia) of the same compound?
A: 52.1 nM

Q: And the TGI (HL-60(TB) leukemia)?
A: 1760 nM

Q: And the GI50 (SN12C renal)?
A: 3020 nM

Q: And the TGI (SN12C renal)?
A: 14900 nM

Q: What about the GI50 (BT-549 breast) of the same compound?
A: 1490 nM

Q: What about the TGI (BT-549 breast) of the same compound?
A: 2830 nM

Q: And the GI50 (NCI-H522 lung)?
A: 1770 nM

Q: What about the TGI (NCI-H522 lung) of the same compound?
A: 3170 nM

Q: What about the GI50 (SNB-19 CNS) of the same compound?
A: 1370 nM

Q: And the TGI (SNB-19 CNS)?
A: 2760 nM

Q: And the GI50 (MALME-3M melanoma)?
A: 1340 nM

Q: What about the TGI (MALME-3M melanoma) of the same compound?
A: 2640 nM

Q: What about the GI50 (SF-268 CNS) of the same compound?
A: 79.4 nM

Q: And the TGI (SF-268 CNS)?
A: 941 nM

Q: And the GI50 (MDA-MB-435 melanoma)?
A: 2260 nM

Q: And the TGI (MDA-MB-435 melanoma)?
A: 9490 nM

Q: What about the GI50 (OVCAR-5 ovarian) of the same compound?
A: 885 nM

Q: And the TGI (OVCAR-5 ovarian)?
A: > 100000 nM

Q: And the GI50 (SK-OV-3 ovarian)?
A: 1450 nM

Q: What about the TGI (SK-OV-3 ovarian) of the same compound?
A: 2780 nM

Q: What about the GI50 (UACC-257 melanoma) of the same compound?
A: 1550 nM

Q: What about the TGI (UACC-257 melanoma) of the same compound?
A: 2900 nM

Q: What about the GI50 (A498 renal) of the same compound?
A: 853 nM

Q: And the TGI (A498 renal)?
A: 2120 nM

Q: And the GI50 (MDA-MB-468 breast)?
A: 1630 nM

Q: And the TGI (MDA-MB-468 breast)?
A: 2990 nM

Source: PubChem BioAssay (NCI)
